In brackets after ≈: the same amount, converted by molar mass.
How the values were obtained:
Assay type in all cases: cell-based
Streptococcus pneumoniae = assay: Bacterial susceptibility testing in liquid media (MIC), Streptococcus pneumoniae; conditions: lowest concentration reducing growth by 80% or more, 37 degrees C., 24 hrs, read-out: MIC against Streptococcus pneumoniae
Experimental: (§1) Compounds were tested for antimicrobial activity by susceptibility testing in liquid media. Compounds were dissolved in dimethylsulfoxide and tested in 10 doubling dilutions in the susceptibility assays. The organisms used in the assay were grown overnight on suitable agar media and then suspended in a liquid medium appropriate for the growth of the organism. The suspension was a 0.5 McFarland and a further 1 in 10 dilution was made into the same liquid medium to prepare the final organism suspension in 100 μL. Plates were incubated under appropriate conditions at 37 degrees C. for 24 hrs prior to reading. The Minimum Inhibitory Concentration was determined as the lowest drug concentration able to reduce growth by 80% or more.

HIN446 = assay: Bacterial susceptibility testing in liquid media (MIC), HIN446; conditions: strain HIN446; lowest concentration reducing growth by 80% or more; 37 degrees C., 24 hrs
Experimental: as §1

MCA445 = assay: Bacterial susceptibility testing in liquid media (MIC), MCA445; conditions: strain MCA445; lowest concentration reducing growth by 80% or more; 37 degrees C., 24 hrs
Experimental: as §1

SPN548 = assay: Bacterial susceptibility testing in liquid media (MIC), SPN548; conditions: strain SPN548; lowest concentration reducing growth by 80% or more; 37 degrees C., 24 hrs
Experimental: as §1

SAU516 = assay: Bacterial susceptibility testing in liquid media (MIC), SAU516; conditions: strain SAU516; lowest concentration reducing growth by 80% or more; 37 degrees C., 24 hrs
Experimental: as §1

EFM073 = assay: Bacterial susceptibility testing in liquid media (MIC), EFM073; conditions: strain EFM073; lowest concentration reducing growth by 80% or more; 37 degrees C., 24 hrs
Experimental: as §1

| MIC (Streptococcus pneumoniae) | Structure (SMILES) | MIC HIN446 (HIN446) | MIC MCA445 (MCA445) | MIC SPN548 (SPN548) | MIC SAU516 (SAU516) | MIC EFM073 (EFM073) |
| --- | --- | --- | --- | --- | --- | --- |
| 0.13 µg/mL (≈ 0.281 µM) | CO[C@@H]1CN(c2cc(C(=O)O)nc(Cl)n2)CC[C@@H]1NC(=O)c1[nH]c(C)c(Cl)c1Cl (racemic) [Example 48, Cis(±)2-Chloro-6-(4-{[(3,4-dichloro-5-methyl-1H-pyrrol-2-yl)carbonyl]amino}-3-methoxypiperidin-1-yl)pyrimidine-4-carboxylic acid] |  |  |  |  |  |
|  | CO[C@@H]1CN(c2cc(C(=O)O)nc3ccccc23)CC[C@@H]1NC(=O)c1cc(Cl)c(C)[nH]1 (racemic) [Example 60, Cis(±)4-(4-{[(4-chloro-5-methyl-1H-pyrrol-2-yl)carbonyl]amino}-3-methoxypiperidin-1-yl)quinoline-2-carboxylic acid] | 4 µg/mL (≈ 9.03 µM) | 0.25 µg/mL (≈ 0.564 µM) | 2 µg/mL (≈ 4.52 µM) | 2 µg/mL (≈ 4.52 µM) | 8 µg/mL (≈ 18.1 µM) |
|  | CO[C@@H]1CN(c2cc(C(=O)O)ncc2Cl)CC[C@@H]1NC(=O)c1[nH]c(C)c(Cl)c1Cl (racemic) [Example 315, Cis(±)-5-chloro-4-(4-{[(3,4-dichloro-5-methyl-1H-pyrrol-2-yl)carbonyl]amino}-3-methoxypiperidin-1-yl)pyridine-2-carboxylic acid] | 2 µg/mL (≈ 4.33 µM) | 0.13 µg/mL (≈ 0.282 µM) | 0.5 µg/mL (≈ 1.08 µM) | 4 µg/mL (≈ 8.66 µM) | 4 µg/mL (≈ 8.66 µM) |
|  | CO[C@H]1CN(c2nc3cccc(C(=O)O)c3s2)CC[C@H]1NC(=O)c1[nH]c(C)c(Cl)c1Cl [Example 294] | 0.031 µg/mL (≈ 0.0641 µM) | 0.001 µg/mL (≈ 0.00207 µM) | 0.0039 µg/mL (≈ 0.00807 µM) | 0.031 µg/mL (≈ 0.0641 µM) | 0.016 µg/mL (≈ 0.0331 µM) |
|  | Cc1[nH]c(C(=O)N[C@@H]2CCN(c3cc(C(=O)O)ccn3)C[C@@H]2F)c(Cl)c1Cl [Example 345, 2-((3S,4R)-4-{[(3,4-dichloro-5-methyl-1H-pyrrol-2-yl)carbonyl]amino}-3-fluoropiperidin-1-yl)isonicotinic acid] | 0.25 µg/mL (≈ 0.602 µM) | 0.031 µg/mL (≈ 0.0747 µM) | 0.03 µg/mL (≈ 0.0722 µM) | 0.5 µg/mL (≈ 1.2 µM) | 0.13 µg/mL (≈ 0.313 µM) |
